# Assay results taken from the supplement of paper PMC4862054.
# System: HDQ-P1
# Experiment: drug sensitivity score (DSS), CellTiter-Glo (DSS (AUC-based score)); higher = stronger drug effect (viability inhibition or cytotoxicity); extreme values may be limits of the assay
# Conditions: incubation time: 72 h
# In short: (§1)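 Breast cancer cell lines (20 µl suspension) were seeded into 384-well plates holding compound at 5 concentrations in 10-fold steps over a compound-specific 10,000-fold range, then incubated 72 h. CellTox Green fluorescence (485/520 nm) was read first, then CellTiter-Glo luminescence after 10 min at room temperature. Each plate was normalised to 0.1 % DMSO and a positive kill control. The drug sensitivity score was calculated from the area under the fitted dose-response curve.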
row,Structure (SMILES),drug sensitivity score
1,C=CC(=O)N1CCC[C@@H](n2nc(-c3ccc(Oc4ccccc4)cc3)c3c(N)ncnc32)C1 [Ibrutinib],3.29
2,CNC(=O)c1cc(Oc2ccc(NC(=O)Nc3cc(C(C)(C)C)nn3-c3ccc4ncccc4c3)c(F)c2)ccn1 [Rebastinib],0
3,O=C(O)C1(C(=O)O)CCC1.[NH2-].[NH2-].[Pt+2] [Carboplatin],0
4,O=C(O)CCCCC(CCSCc1ccccc1)SCc1ccccc1 (stereo not drawn) [CPI-613],0
5,COc1cc2c(NC3CCN(C(C)C)CC3)nc(C3CCCCC3)nc2cc1OCCCN1CCCC1 [UNC0638],3.3
6,O=C(/C=C/c1cccnc1)NCCCCC1CCN(C(=O)c2ccccc2)CC1 [Daporinad],18
7,Cc1cnc(NC(=O)Nc2cc(Br)c(C)cc2OC[C@@H]2CNCCO2)cn1 [Rabusertib],0
8,CC[C@H](Nc1ncnc2[nH]cnc12)c1nc2cccc(F)c2c(=O)n1-c1ccccc1 [GS-1101],1.93

# System: MCF-10A
# Experiment: as above
# Conditions: incubation time: 72 h
# In short: as §1
row,Structure (SMILES),drug sensitivity score
1,CC(=O)Nc1cccc(-n2c(=O)n(C3CC3)c(=O)c3c(Nc4ccc(I)cc4F)n(C)c(=O)c(C)c32)c1 [Trametinib],20.3
2,C=CCc1cccc(/C=N/NC(=O)CN2CCN(Cc3ccccc3)CC2)c1O [PAC-1],0
3,Nc1nc(F)nc2c1ncn2[C@@H]1O[C@H](CO)[C@@H](O)[C@@H]1O [Fludarabine],0
4,Nc1ncn([C@H]2C[C@H](O)[C@@H](CO)O2)c(=O)n1 [Decitabine],0
5,CC[C@@H]1C(=O)N(C)c2cnc(Nc3ccc(C(=O)NC4CCN(C)CC4)cc3OC)nc2N1C1CCCC1 [BI 2536],9.18
6,CC[C@H](C)C(=O)O[C@H]1C[C@H](O)C=C2C=C[C@H](C)[C@H](CC[C@@H](O)C[C@@H](O)CC(=O)O)[C@H]21 [Pravastatin],0
7,C=CC(=O)N1CCC[C@@H](n2nc(-c3ccc(Oc4ccccc4)cc3)c3c(N)ncnc32)C1 [Ibrutinib],4.67
8,CNC(=O)c1cc(Oc2ccc(NC(=O)Nc3cc(C(C)(C)C)nn3-c3ccc4ncccc4c3)c(F)c2)ccn1 [Rebastinib],0
9,O=C(O)C1(C(=O)O)CCC1.[NH2-].[NH2-].[Pt+2] [Carboplatin],0
10,O=C(O)CCCCC(CCSCc1ccccc1)SCc1ccccc1 (stereo not drawn) [CPI-613],0
11,COc1cc2c(NC3CCN(C(C)C)CC3)nc(C3CCCCC3)nc2cc1OCCCN1CCCC1 [UNC0638],7.1
12,O=C(/C=C/c1cccnc1)NCCCCC1CCN(C(=O)c2ccccc2)CC1 [Daporinad],23.2
13,Cc1cnc(NC(=O)Nc2cc(Br)c(C)cc2OC[C@@H]2CNCCO2)cn1 [Rabusertib],0
14,CC[C@H](Nc1ncnc2[nH]cnc12)c1nc2cccc(F)c2c(=O)n1-c1ccccc1 [GS-1101],0

# System: MDA-MB-231
# Experiment: as above
# Conditions: incubation time: 72 h
# In short: as §1
row,Structure (SMILES),drug sensitivity score
1,CC(=O)Nc1cccc(-n2c(=O)n(C3CC3)c(=O)c3c(Nc4ccc(I)cc4F)n(C)c(=O)c(C)c32)c1 [Trametinib],5.25
2,C=CCc1cccc(/C=N/NC(=O)CN2CCN(Cc3ccccc3)CC2)c1O [PAC-1],2.27
3,Nc1nc(F)nc2c1ncn2[C@@H]1O[C@H](CO)[C@@H](O)[C@@H]1O [Fludarabine],0
4,Nc1ncn([C@H]2C[C@H](O)[C@@H](CO)O2)c(=O)n1 [Decitabine],0
5,CC[C@@H]1C(=O)N(C)c2cnc(Nc3ccc(C(=O)NC4CCN(C)CC4)cc3OC)nc2N1C1CCCC1 [BI 2536],13.3
6,CC[C@H](C)C(=O)O[C@H]1C[C@H](O)C=C2C=C[C@H](C)[C@H](CC[C@@H](O)C[C@@H](O)CC(=O)O)[C@H]21 [Pravastatin],0
7,C=CC(=O)N1CCC[C@@H](n2nc(-c3ccc(Oc4ccccc4)cc3)c3c(N)ncnc32)C1 [Ibrutinib],0
8,CNC(=O)c1cc(Oc2ccc(NC(=O)Nc3cc(C(C)(C)C)nn3-c3ccc4ncccc4c3)c(F)c2)ccn1 [Rebastinib],0
9,O=C(O)C1(C(=O)O)CCC1.[NH2-].[NH2-].[Pt+2] [Carboplatin],0
10,O=C(O)CCCCC(CCSCc1ccccc1)SCc1ccccc1 (stereo not drawn) [CPI-613],0
11,COc1cc2c(NC3CCN(C(C)C)CC3)nc(C3CCCCC3)nc2cc1OCCCN1CCCC1 [UNC0638],6.74
12,O=C(/C=C/c1cccnc1)NCCCCC1CCN(C(=O)c2ccccc2)CC1 [Daporinad],14.8
13,Cc1cnc(NC(=O)Nc2cc(Br)c(C)cc2OC[C@@H]2CNCCO2)cn1 [Rabusertib],0
14,CC[C@H](Nc1ncnc2[nH]cnc12)c1nc2cccc(F)c2c(=O)n1-c1ccccc1 [GS-1101],1.82

# System: MDA-MB-436
# Experiment: as above
# Conditions: incubation time: 72 h
# In short: as §1
row,Structure (SMILES),drug sensitivity score
1,CC(=O)Nc1cccc(-n2c(=O)n(C3CC3)c(=O)c3c(Nc4ccc(I)cc4F)n(C)c(=O)c(C)c32)c1 [Trametinib],0.966
2,C=CCc1cccc(/C=N/NC(=O)CN2CCN(Cc3ccccc3)CC2)c1O [PAC-1],5.19
3,Nc1nc(F)nc2c1ncn2[C@@H]1O[C@H](CO)[C@@H](O)[C@@H]1O [Fludarabine],1.1
4,Nc1ncn([C@H]2C[C@H](O)[C@@H](CO)O2)c(=O)n1 [Decitabine],0
5,CC[C@@H]1C(=O)N(C)c2cnc(Nc3ccc(C(=O)NC4CCN(C)CC4)cc3OC)nc2N1C1CCCC1 [BI 2536],14
6,CC[C@H](C)C(=O)O[C@H]1C[C@H](O)C=C2C=C[C@H](C)[C@H](CC[C@@H](O)C[C@@H](O)CC(=O)O)[C@H]21 [Pravastatin],26.2
7,C=CC(=O)N1CCC[C@@H](n2nc(-c3ccc(Oc4ccccc4)cc3)c3c(N)ncnc32)C1 [Ibrutinib],0
8,CNC(=O)c1cc(Oc2ccc(NC(=O)Nc3cc(C(C)(C)C)nn3-c3ccc4ncccc4c3)c(F)c2)ccn1 [Rebastinib],0
9,O=C(O)C1(C(=O)O)CCC1.[NH2-].[NH2-].[Pt+2] [Carboplatin],0
10,O=C(O)CCCCC(CCSCc1ccccc1)SCc1ccccc1 (stereo not drawn) [CPI-613],0
11,COc1cc2c(NC3CCN(C(C)C)CC3)nc(C3CCCCC3)nc2cc1OCCCN1CCCC1 [UNC0638],6.5
12,O=C(/C=C/c1cccnc1)NCCCCC1CCN(C(=O)c2ccccc2)CC1 [Daporinad],8.81
13,Cc1cnc(NC(=O)Nc2cc(Br)c(C)cc2OC[C@@H]2CNCCO2)cn1 [Rabusertib],0
14,CC[C@H](Nc1ncnc2[nH]cnc12)c1nc2cccc(F)c2c(=O)n1-c1ccccc1 [GS-1101],3.18

# System: MDA-MB-468
# Experiment: as above
# Conditions: incubation time: 72 h
# In short: as §1
row,Structure (SMILES),drug sensitivity score
1,CC(=O)Nc1cccc(-n2c(=O)n(C3CC3)c(=O)c3c(Nc4ccc(I)cc4F)n(C)c(=O)c(C)c32)c1 [Trametinib],1.05
2,C=CCc1cccc(/C=N/NC(=O)CN2CCN(Cc3ccccc3)CC2)c1O [PAC-1],3.77
3,Nc1nc(F)nc2c1ncn2[C@@H]1O[C@H](CO)[C@@H](O)[C@@H]1O [Fludarabine],0
4,Nc1ncn([C@H]2C[C@H](O)[C@@H](CO)O2)c(=O)n1 [Decitabine],19
5,CC[C@@H]1C(=O)N(C)c2cnc(Nc3ccc(C(=O)NC4CCN(C)CC4)cc3OC)nc2N1C1CCCC1 [BI 2536],19.5
6,CC[C@H](C)C(=O)O[C@H]1C[C@H](O)C=C2C=C[C@H](C)[C@H](CC[C@@H](O)C[C@@H](O)CC(=O)O)[C@H]21 [Pravastatin],3.34
7,C=CC(=O)N1CCC[C@@H](n2nc(-c3ccc(Oc4ccccc4)cc3)c3c(N)ncnc32)C1 [Ibrutinib],0.811
8,CNC(=O)c1cc(Oc2ccc(NC(=O)Nc3cc(C(C)(C)C)nn3-c3ccc4ncccc4c3)c(F)c2)ccn1 [Rebastinib],0
9,O=C(O)C1(C(=O)O)CCC1.[NH2-].[NH2-].[Pt+2] [Carboplatin],0
10,O=C(O)CCCCC(CCSCc1ccccc1)SCc1ccccc1 (stereo not drawn) [CPI-613],0
11,COc1cc2c(NC3CCN(C(C)C)CC3)nc(C3CCCCC3)nc2cc1OCCCN1CCCC1 [UNC0638],8.02
12,O=C(/C=C/c1cccnc1)NCCCCC1CCN(C(=O)c2ccccc2)CC1 [Daporinad],30
13,Cc1cnc(NC(=O)Nc2cc(Br)c(C)cc2OC[C@@H]2CNCCO2)cn1 [Rabusertib],0
14,CC[C@H](Nc1ncnc2[nH]cnc12)c1nc2cccc(F)c2c(=O)n1-c1ccccc1 [GS-1101],2.6

# System: MFM-223
# Experiment: as above
# Conditions: incubation time: 72 h
# In short: as §1
row,Structure (SMILES),drug sensitivity score
1,CC(=O)Nc1cccc(-n2c(=O)n(C3CC3)c(=O)c3c(Nc4ccc(I)cc4F)n(C)c(=O)c(C)c32)c1 [Trametinib],1.88
2,C=CCc1cccc(/C=N/NC(=O)CN2CCN(Cc3ccccc3)CC2)c1O [PAC-1],1.4
3,Nc1nc(F)nc2c1ncn2[C@@H]1O[C@H](CO)[C@@H](O)[C@@H]1O [Fludarabine],0
4,Nc1ncn([C@H]2C[C@H](O)[C@@H](CO)O2)c(=O)n1 [Decitabine],0
5,CC[C@@H]1C(=O)N(C)c2cnc(Nc3ccc(C(=O)NC4CCN(C)CC4)cc3OC)nc2N1C1CCCC1 [BI 2536],16.7
6,CC[C@H](C)C(=O)O[C@H]1C[C@H](O)C=C2C=C[C@H](C)[C@H](CC[C@@H](O)C[C@@H](O)CC(=O)O)[C@H]21 [Pravastatin],2.84
7,C=CC(=O)N1CCC[C@@H](n2nc(-c3ccc(Oc4ccccc4)cc3)c3c(N)ncnc32)C1 [Ibrutinib],0
8,CNC(=O)c1cc(Oc2ccc(NC(=O)Nc3cc(C(C)(C)C)nn3-c3ccc4ncccc4c3)c(F)c2)ccn1 [Rebastinib],6.56
9,O=C(O)C1(C(=O)O)CCC1.[NH2-].[NH2-].[Pt+2] [Carboplatin],0
10,O=C(O)CCCCC(CCSCc1ccccc1)SCc1ccccc1 (stereo not drawn) [CPI-613],0
11,COc1cc2c(NC3CCN(C(C)C)CC3)nc(C3CCCCC3)nc2cc1OCCCN1CCCC1 [UNC0638],6.13
12,O=C(/C=C/c1cccnc1)NCCCCC1CCN(C(=O)c2ccccc2)CC1 [Daporinad],31.4
13,Cc1cnc(NC(=O)Nc2cc(Br)c(C)cc2OC[C@@H]2CNCCO2)cn1 [Rabusertib],0
14,CC[C@H](Nc1ncnc2[nH]cnc12)c1nc2cccc(F)c2c(=O)n1-c1ccccc1 [GS-1101],0
